Patent publication US20070123555A1, “PREVENTION AND TREATMENT OF HEARING DISORDERS” (Cypress Bioscience, Inc., priority 2005, published 2007)
“Also recorded” adds a separate entry of the source. Where two headings read alike, the source gives them in different places.

Tests used:
cochlear sensory cells = details: perfusion into the cochlea via osmotic minipump; cited from earlier work
cochlea = details: local administration; cited from earlier work
[1] = system: noise-induced temporary threshold shift; details: daily ingestion of 122 mg for 10 days; cited from earlier work
[2] = system: outer hair cells of cochlear explants; experiment: Cochlear explant cultures challenged with cisplatin, outer hair cell damage; assay type: cell-based, Sprague-Dawley rats
Source text: Explants of sensory epithelium from the basal turn of postnatal day 5 (p5) Sprague-Dawley rats were isolated using the methods of Van De Water and Sobkowicz (Van d Water T., Ruben R. J. (1974) “Growth of the inner ear in organ culture,” Ann. Otol. Rhinol. Laryngol., 83:1-16; Sobkowicz H. M., Loftus J. M., Slapnick S. M. (1993) “Tissue culture of the organ of Corti.,” Acta. Suppl. 502:3-36). Explants were maintained in Dulbecco's Modified Eagle's medium with 10% fetal bovine serum and 30 U/ml penicillin. HEPES buffer was added to a concentration of 25 mM and the glucose concentration increased to 6 mg/ml to enhance neuronal survival. Each 15 mm dish containing 250 μl of medium was maintained in an incubator at 37° C. with 5% CO2 and 95% humidity.
Toxicity-inducers (gentamicin or cisplatin, 1-100 μM) were exposed to the medium 12-24 h following plating for 48 h. Concentrations of gentamicin or cisplatin were employed that produced approximately 50% loss of outer hair cells, which permitted for assessments of either increases or decreases in outer hair cell damage.
Test compounds were applied to the cultures for 12 h, and then challenged with medium containing gentamicin or cisplatin plus the test compound for an additional 48 h, followed by fixation and evaluation.
At the end of culture, free floating explants were fixed with 4% paraformaldehyde and 1% glutaraldehyde in phosphate-buffered saline. The explants were then permeabilized with 1 % Tween-20 in phosphate-buffered saline. The explants were then stained with conjugated phalloidin-rhodamine probe in phosphate-buffered saline, washed twice, and mounted between two cover slips in a 1:3 mixture of phosphate-buffered saline/glycerol. Explants were imaged by light and fluorescence microscopy and by laser confocal microscopy to assess the degree of damage to the outer hair cells.
The results of one such test, employing cisplatin as an ototoxic agent and nicergoline as a test compound, are shown in FIG. 1. The control cultures contained no cisplatin and no nicergoline. […]

CYP2D6 [3] = target: CYP2D6 (Homo sapiens, UniProt P10635); details: cited from earlier work
CYP2D6 [4] = details: in vivo; cited from earlier work
[5] = system: permanent threshold shift; details: 6.7 mmol daily, versus placebo (sodium aspartate); rifle noise six days per week for eight weeks; cited from earlier work

Sequence of CYP2D6 (Homo sapiens, UniProt P10635) (P10635 whole entry): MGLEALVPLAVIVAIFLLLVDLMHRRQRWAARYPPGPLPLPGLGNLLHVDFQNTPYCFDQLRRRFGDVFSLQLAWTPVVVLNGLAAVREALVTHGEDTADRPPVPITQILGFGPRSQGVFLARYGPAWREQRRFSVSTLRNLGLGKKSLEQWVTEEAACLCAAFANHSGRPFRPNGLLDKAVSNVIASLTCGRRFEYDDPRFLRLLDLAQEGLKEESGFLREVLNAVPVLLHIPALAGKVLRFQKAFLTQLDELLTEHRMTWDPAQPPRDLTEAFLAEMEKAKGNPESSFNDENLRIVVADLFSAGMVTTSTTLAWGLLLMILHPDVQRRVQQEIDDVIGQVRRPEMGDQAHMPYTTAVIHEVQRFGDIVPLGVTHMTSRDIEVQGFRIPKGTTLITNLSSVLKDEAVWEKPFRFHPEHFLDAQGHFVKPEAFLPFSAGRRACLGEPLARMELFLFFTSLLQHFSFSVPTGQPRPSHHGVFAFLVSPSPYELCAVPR

Nc1nc2ccc(OC(F)(F)F)cc2s1 [riluzole, 2-amino-6-trofluoromethoxybenzothiazole]
effect on cochlear damage after acoustic trauma (cochlear sensory cells): prevents mitochondrial damage and subsequent translocation of cytochrome c, DNA fragmentation and hair cell degeneration

CCN(CC)CCn1c(=O)c(Cc2ccc(OC)cc2)nc2ccccc21 [caroverine, 1-[2-(diethylamino)ethyl]-3-[(4-methoxyphenyl)methyl]-2-(1H)-quinoxalinone]
protection of cochlea from noise trauma (cochlea): protection of cochlea from noise trauma

[Mg] [magnesium]
effect on noise-induced temporary threshold shift [1]: protect against noise-induced temporary threshold shift

CO[C@]12C[C@@H](COC(=O)c3cncc(Br)c3)CN(C)[C@@H]1Cc1cn(C)c3cccc2c13 [nicergoline]
concentrations at which nicergoline itself is non-toxic to cochlear cultures ([2]; 0 μg/ml cisplatin, 10 μM nicergoline, 5 cultures): up to 10 μM
protection against toxic effects of cisplatin ([2]; 2 μg/ml cisplatin, nicergoline 10 nM, 1 μM or 10 μM, FIG. 1): protects cochlear ear explants from chemically-induced damage by cisplatin; also recorded: exerting protection against the toxic effects of cisplatin at all tested concentrations
concentration providing maximum protection from cisplatin-induced cell death ([2]; cisplatin 2 μg/ml (sentence prints 2 μM), test compound 12 h, then with cisplatin 48 h, 5 cultures each): about 1 μM
level in blood plasma after nicergoline dosing (CYP2D6 [3]; individuals having normal CYP2D6 function): almost no detectable nicergoline in blood plasma

CO[C@]12C[C@@H](CO)CN(C)[C@@H]1Cc1c[nH]c3cccc2c13 [MDL, 10-α-methoxy-9,9-dihydrolysergol]
level in plasma after nicergoline dosing (CYP2D6 [4]): low concentration of MDL

N[C@@H](CC(=O)[O-])C(=O)[O-].[Mg+2] [magnesium aspartate]
effect on permanent threshold shift [5]: significant effect on permanent threshold shift

CO[C@]12C[C@@H](CO)CN(C)[C@@H]1Cc1cn(C)c3cccc2c13 [MMDL, 1-methyl-10-α-methoxy-9,10-dihydrolysergol]
level in blood plasma after nicergoline dosing (CYP2D6 [3]; in vivo): very little MMDL
level in plasma after nicergoline dosing (CYP2D6 [4]): relatively high concentrations of MMDL
